Reference: patent US10517294B2, “Dihydrothiophene derivatives as insecticidal compounds” (priority 2012, dated 2019)

How the values were obtained:
Format in all cases: in vivo
Tetranychus urticae = Tetranychus urticae (two-spotted spider mite), sprayed bean leaf discs; details: foliar, 192 h, application rate 200 ppm, mixed ages on bean leaf discs, 8 days after infestation, read-out: control (mortality, mobile stages)
Experimental: Bean leaf discs on agar in 24-well microtiter plates were sprayed with aqueous test solutions prepared from 10′000 ppm DMSO stock solutions. After drying the leaf discs were infested with a mite population of mixed ages. The samples were assessed for mortality (mobile stages) 8 days after infestation.

Thrips tabaci = Thrips tabaci (onion thrips), sprayed sunflower leaf discs; details: foliar, 144 h, application rate 200 ppm, mixed ages on sunflower leaf discs, 6 days after infestation, read-out: control (mortality)
Experimental: Sunflower leaf discs were placed on agar in 24-well microtiter plates and sprayed with aqueous test solutions prepared from 10′000 ppm DMSO stock solutions. After drying the leaf discs were infested with a thrips population of mixed ages. The samples were assessed for mortality 6 days after infestation.

Plutella xylostella = Plutella xylostella (diamond back moth), artificial diet; details: 120 h, application rate 200 ppm, L2 larvae on artificial diet, 5 days after infestation, read-out: control (at least one of mortality, growth inhibition)
Experimental: 24-well microtiter plates with artificial diet were treated with aqueous test solutions prepared from 10′000 ppm DMSO stock solutions by pipetting. After drying, the plates were infested with L2 larvae (10 to 15 per well). The samples were assessed for mortality and growth inhibition 5 days after infestation. Control of Plutella xyllostella by a test sample is noted when at least one of mortality and growth inhibition is better than the untreated sample.

Diabrotica balteata = Diabrotica balteata (corn root worm), sprayed maize sprouts; details: 96 h, application rate 200 ppm, L2 larvae on sprayed maize sprouts, 4 days after infestation, read-out: control (at least one of mortality, growth inhibition)
Experimental: Maize sprouts, placed on an agar layer in 24-well microtiter plates were treated with aqueous test solutions prepared from 10′000 ppm DMSO stock solutions by spraying. After drying, the plates were infested with L2 larvae (6 to 10 per well). The samples were assessed for mortality and growth inhibition 4 days after infestation. Control of Diabrotica balteata by a test sample is noted when at least one of mortality and growth inhibition is better than the untreated sample.

Heliothis virescens = Heliothis virescens (tobacco budworm), eggs on artificial diet; details: application rate 200 ppm, eggs 0-24 h old on artificial diet, 5 days after infestation, read-out: control (at least one of egg mortality, larval mortality, growth inhibition)
Experimental: Eggs (0-24 h old) were placed in 24-well microtiter plates on artificial diet and treated with aqueous test solutions prepared from 10′000 ppm DMSO stock solutions by pipetting. The samples were assessed for egg mortality, larval mortality and growth inhibition 5 days after infestation. Control of Heliothis virescens by a test sample is noted when at least one of egg mortality, larval mortality and growth inhibition is better than the untreated sample.

Spodoptera littoralis = Spodoptera littoralis (Egyptian cotton leaf worm), sprayed cotton leaf discs; details: foliar, 72 h, application rate 200 ppm, L1 larvae on cotton leaf discs, 3 days after infestation, read-out: control (at least one of mortality, anti-feedant effect, growth inhibition)
Experimental: Cotton leaf discs were placed on agar in 24-well microtiter plates and sprayed with aqueous test solutions prepared from 10′000 ppm DMSO stock solutions. After drying the leaf discs were infested with five L1 larvae. The samples were assessed for mortality, anti-feedant effect, and growth inhibition 3 days after infestation. Control of Spodoptera littoralis by a test sample is noted when at least one of mortality, anti-feedant effect, and growth inhibition is better than the untreated sample.

Cc1cc(C2=CS[C@](c3cc(Cl)cc(Cl)c3)(C(F)(F)F)C2)ccc1C(=O)N[C@H]1C[S@@+]([O-])C1 [Compound D4, 4-[(2R)-2-(3,5-dichlorophenyl)-2-(trifluoromethyl)-3H-thiophen-4-yl]-2-methyl-N-(1-oxothietan-3-yl)benzamide]
≥ 80%: mortality at 200 ppm (Tetranychus urticae) | mortality at 200 ppm (Thrips tabaci) | mortality at 200 ppm (Plutella xylostella) | mortality at 200 ppm (Diabrotica balteata) | mortality at 200 ppm (Heliothis virescens) | percent control (mortality, anti-feedant effect or growth inhibition) at 200 ppm (Spodoptera littoralis)

CCN1OC[C@@H](NC(=O)c2ccc(C3=CS[C@](c4cc(Cl)cc(Cl)c4)(C(F)(F)F)C3)cc2C)C1=O [Compound D3, 4-[(2R)-2-(3,5-dichlorophenyl)-2-(trifluoromethyl)-3H-thiophen-4-yl]-N-[(4R)-2-ethyl-3-oxo-isoxazolidin-4-yl]-2-methyl-benzamide]
≥ 80%: mortality at 200 ppm (Tetranychus urticae) | mortality at 200 ppm (Thrips tabaci) | mortality at 200 ppm (Plutella xylostella) | mortality at 200 ppm (Diabrotica balteata) | mortality at 200 ppm (Heliothis virescens) | percent control (mortality, anti-feedant effect or growth inhibition) at 200 ppm (Spodoptera littoralis)
